According to PMC5706701, “Development of a homogenous high-throughput assay for inositol hexakisphosphate kinase 1 activity” (PLoS ONE, 2017):
Read-outs that look alike come from different tables or passages of the source.

Target: T1, Human IP6K1 (Homo sapiens, UniProt Q92551)
T1 construct: GST (N, cleaved yes); made in house; host or cells: C43 E. coli, pGEX-6P-2
Assay: IP6K1 high-throughput screen of the Sigma LOPAC (ADP-Glo Max, single point);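 also: final compound concentration 10µM in 5% DMSO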
Format: biochemical

[1] = LOPAC single-point screen, ADP-Glo Max luminescence raw signal per well
[2] = LOPAC single-point screen, Z-score relative to plate average and StDev
[3] = LOPAC single-point screen, ADP-Glo Max raw signal per well
[4] = LOPAC single-point screen, Z-score against plate average and StDev
[5] = LOPAC single-point screen, Z-score from raw signal with plate average and StDev
[6] = LOPAC single-point screen, Z-score from plate average and StDev

T1 sequence (Q92551 whole entry): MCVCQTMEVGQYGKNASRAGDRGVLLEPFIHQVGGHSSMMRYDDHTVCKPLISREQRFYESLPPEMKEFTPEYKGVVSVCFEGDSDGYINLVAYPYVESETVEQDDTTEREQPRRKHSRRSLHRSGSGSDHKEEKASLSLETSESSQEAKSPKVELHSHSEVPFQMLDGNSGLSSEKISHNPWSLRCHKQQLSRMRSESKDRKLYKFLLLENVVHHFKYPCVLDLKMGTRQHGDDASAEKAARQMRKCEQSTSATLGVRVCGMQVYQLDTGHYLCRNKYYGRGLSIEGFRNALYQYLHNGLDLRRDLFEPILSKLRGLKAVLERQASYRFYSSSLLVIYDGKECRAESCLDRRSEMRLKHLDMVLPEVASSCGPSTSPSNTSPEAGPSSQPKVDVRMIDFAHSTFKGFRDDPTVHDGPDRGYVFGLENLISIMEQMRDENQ

Cl.NC1(C(=O)O)CCCCC1
Raw Signal [1]: 53186
Z-score [2]: -0.8326

Clc1ccc(C(c2ccccc2Cl)C(Cl)Cl)cc1 (stereo not drawn)
Raw Signal [3]: 59387
Z-score [4]: 0.2596

COc1ccccc1N1CCNCC1.Cl
Raw Signal [3]: 57311
Z-score [4]: 0.2501

COc1ccc2c(c1)c(CC(=O)O)c(C)n2Cc1ccc(F)cc1
Raw Signal [3]: 54531
Z-score [5]: -0.1292

CC1CNCCN1S(=O)(=O)c1cccc2cnccc12.Cl.Cl (stereo not drawn)
Raw Signal [3]: 52932
Z-score [5]: -0.2456

CC1CN(S(=O)(=O)c2cccc3cnccc23)CCN1.Cl.Cl (stereo not drawn)
Raw Signal [3]: 53944
Z-score [4]: -0.07553

Cl.N=C(N)NC(=N)Nc1cccc(Cl)c1
Raw Signal [1]: 49824
Z-score [2]: -1.085

COc1ccc2c(c1)c(CC(=O)O)c(C)n2C(=O)c1ccccc1
Raw Signal [1]: 53454
Z-score [2]: -0.7854

CCN(CC)C(C)C(=O)N1c2ccccc2Sc2ccccc21.Cl (stereo not drawn)
Raw Signal [3]: 55206
Z-score [4]: 0.007914

C[N+]1(C)CCN(c2ccccc2)CC1.[I-]
Raw Signal [3]: 55993
Z-score [4]: 0.1677

CCCc1c(-c2ccc(O)cc2)nn(-c2ccc(O)cc2)c1-c1ccc(O)cc1
Raw Signal [1]: 52149
Z-score [2]: -0.6129

Cl.NCC(O)C1CCCCCCC1 (stereo not drawn)
Raw Signal [1]: 52354
Z-score [2]: -0.5713

CSc1nc(N)c2ncn([C@@H]3O[C@H](COP(=O)(O)OP(=O)(O)O)[C@@H](O)[C@H]3O)c2n1.[Na].[Na].[Na]
Raw Signal [3]: 54295
Z-score [4]: -0.01655

CSc1nc(N)c2ncn([C@@H]3O[C@H](COP(=O)([O-])OP(=O)([O-])OP(=O)([O-])[O-])[C@@H](O)[C@H]3O)c2n1.[Na+].[Na+].[Na+].[Na+]
Raw Signal [3]: 58230
Z-score [4]: 0.05581

C[N+](C)(C)CCC(=O)c1cccc2ccccc12.[I-]
Raw Signal [3]: 55064
Z-score [4]: 0.1127

O=[N+]([O-])c1ccc(O[C@@H]2O[C@H](CO)[C@@H](O)[C@H](O)[C@H]2F)c([N+](=O)[O-])c1
Raw Signal [1]: 50009
Z-score [2]: -1.048

NC(=O)COc1c(F)cc(SCCNS(=O)(=O)c2ccccc2)cc1F
Raw Signal [3]: 52796
Z-score [5]: -0.2684

COc1cc(CCN)ccc1O.Cl
Raw Signal [3]: 53513
Z-score [5]: -0.1479

Cc1nnc2ccc(-c3cccc(C(F)(F)F)c3)nn12
Raw Signal [3]: 54310
Z-score [4]: -0.01403

CN1C2CCC1CC(OC(=O)c1c[nH]c3ccccc13)C2.Cl (stereo not drawn)
Raw Signal [3]: 56078
Z-score [4]: 0.01053

C[N+]1(C)C2CCC1CC(OC(=O)c1c[nH]c3ccccc13)C2.[I-] (stereo not drawn)
Raw Signal [1]: 66909
Z-score [6]: 2.115

Cl.Fc1ccc(C(OCCCc2c[nH]cn2)c2ccc(F)cc2)cc1
Raw Signal [3]: 51668
Z-score [5]: -0.458

C[C@]12CC[C@@H](O)C[C@@H]1CC[C@@H]1[C@@H]2CC[C@]2(C)[C@@H](C(=O)CO)CC[C@@H]12
Raw Signal [3]: 54259
Z-score [4]: -0.0226

CN1C2CCC1CC(OC(c1ccccc1)c1ccc(Cl)cc1)C2.Cl (stereo not drawn)
Raw Signal [1]: 50933
Z-score [2]: -0.8599

Cl.O=C(OC1CCN(CCCl)CC1)C(c1ccccc1)c1ccccc1
Raw Signal [3]: 54369
Z-score [5]: -0.1621

COc1ccc(CCN)cc1O.Cl
Raw Signal [3]: 55159
Z-score [4]: -0.001632

Cl.NCCc1ccc(S(=O)(=O)F)cc1
Raw Signal [3]: 58918
Z-score [4]: 0.177

O=C(O)c1cc([N+](=O)[O-])ccc1NCCCc1ccccc1
Raw Signal: 51963
Z-score: -0.4084

COc1ccc2[nH]c3c(c2c1)CCNC3
Raw Signal [1]: 69821
Z-score [6]: 2.097

Cc1cccc(C#Cc2ccccc2)n1.Cl
Raw Signal [1]: 51049
Z-score [2]: -0.562

Oc1cc(-c2ccccc2)nc2nc(Cl)ccc12
Raw Signal [3]: 57826
Z-score [4]: -0.01534

Nc1ncnc2c1c(-c1ccc(Oc3ccccc3)cc1)cn2C1CCCC1
Raw Signal [3]: 53911
Z-score [5]: -0.2551

COCc1nc2c([nH]1)c(=O)n(C)c(=O)n2CC(C)C
Raw Signal [3]: 51997
Z-score [5]: -0.4027

Cl.Nc1c2c(nc3ccccc13)CCCC2
Raw Signal: 49916
Z-score: -1.409

Cl.Nc1ccn([C@@H]2O[C@H](CO)[C@@H](O)[C@@H]2O)c(=O)n1
Raw Signal [1]: 65878
Z-score [6]: 1.403

Br.COc1ccc2c(c1)[C@]13CCCC[C@@H]1[C@H](C2)N(C)CC3.O
Raw Signal [3]: 54296
Z-score [5]: -0.1769

O=C(O)CN(CCOCCOCCN(CC(=O)O)CC(=O)O)CC(=O)O
Raw Signal: 55582
Z-score: 0.08428

NC(N)=Nc1ccc2[nH]c3c(c2c1)C[C@@]1(O)[C@H]2Cc4ccc(O)c5c4[C@@]1(CCN2CC1CC1)[C@H]3O5.O=C(O)C(F)(F)F.O=C(O)C(F)(F)F
Raw Signal [1]: 65830
Z-score [6]: 2.166

Cl.O[Si](CCCN1CCCCC1)(c1ccc(F)cc1)C1CCCCC1 (stereo not drawn)
Raw Signal [3]: 52920
Z-score [5]: -0.4564

C[C@@H](N)Cc1cnc[nH]1.Cl.Cl
Raw Signal: 55341
Z-score: 0.03533

COC(=O)[C@@H](N)Cc1ccc(O)c(O)c1.Cl
Raw Signal [1]: 38457
Z-score [2]: -3.394

CC(=N)NCCC[C@H](N)C(=O)O.Cl
Raw Signal [3]: 54044
Z-score [4]: -0.05873

COc1cccc(C(=O)NCCN2CCN(c3ccc(Cl)cc3)CC2)c1
Raw Signal [3]: 55564
Z-score [5]: -0.4137

Cl.O=C(CCCN1CCC2(CC1)C(=O)N(CCc1ccc(N=C=S)cc1)CN2c1ccccc1)c1ccc(F)cc1
Raw Signal [3]: 54409
Z-score [4]: 0.002603

CNCCc1c[nH]c2ccc(O)cc12.O=C(O)C(=O)O
Raw Signal [3]: 53556
Z-score [5]: -0.1407

CC(COc1ccc(/C=C/c2ccccc2)cc1)[N+](C)(C)C.[I-] (stereo not drawn)
Raw Signal [1]: 63739
Z-score [6]: 1.499

Cc1ccc(S(=O)(=O)N[C@@H](CCCCN)C(=O)CCl)cc1.Cl
Raw Signal [1]: 53467
Z-score [2]: -0.4967

Cl.NOCC(=O)O.NOCC(=O)O
Raw Signal [1]: 66377
Z-score [6]: 1.491

Nc1ncnc2c1ncn2[C@@H]1O[C@H](COP(=O)(O)OP(=O)(O)OP(=O)(O)OP(=O)(O)OC[C@H]2O[C@@H](n3cnc4c(N)ncnc43)[C@H](O)[C@@H]2O)[C@@H](O)[C@H]1O
Raw Signal [3]: 55437
Z-score [4]: 0.05483

NC(Cc1cccc(-c2ccccc2CP(=O)(O)O)c1)C(=O)O (stereo not drawn)
Raw Signal [3]: 56365
Z-score [4]: 0.06629

Br.CCCN1CCc2cc(O)cc3c2[C@H]1Cc1ccc(O)c(O)c1-3
Raw Signal [1]: 52120
Z-score [2]: -0.6188

Br.CN1CCc2cc(O)cc3c2[C@H]1Cc1ccc(O)c(O)c1-3
Raw Signal [1]: 51557
Z-score [2]: -0.7332

N[C@H](C(=O)O)[C@H]1C[C@@H]1C(=O)O
Raw Signal [3]: 55555
Z-score [4]: 0.07879

C[C@H](O)[C@H](O)[C@H]1CNc2nc(N)[nH]c(=O)c2N1.Cl
Raw Signal [3]: 53766
Z-score [5]: -0.4386

CC[C@@H]1Cc2cc(O)ccc2C2=C1c1ccc(O)cc1C[C@H]2CC
Raw Signal [1]: 51869
Z-score [2]: -0.6698

Nc1ncnc2c1ncn2[C@@H]1O[C@H](COP(=O)(O)CP(=O)(O)OP(=O)([O-])[O-])[C@@H](O)[C@H]1O.[Li+].[Li+]
Raw Signal [1]: 51012
Z-score [2]: -0.5682

CCCCCCC(C(C)O)n1cnc2c(N)ncnc21.Cl (stereo not drawn)
Raw Signal [1]: 51235
Z-score [2]: -0.7986
